From ChEMBL document CHEMBL4390652, “Design, biological evaluation and X-ray crystallography of nanomolar multifunctional ligands targeting simultaneously acetylcholinesterase and glycogen synthase kinase-3” (Eur J Med Chem, 2019)

Columns and labels:
[1] = tested on: Tyrosine-protein kinase ABL1 (Homo sapiens), P00519 [F317L]; test: Binding affinity to human phosphorylated ABL1 F317L mutant (S229 to K512 residues) expressed in mammalian expression system assessed as residual binding level at 10 uM by Kinomescan method relative to control
[2] = target: Serine/threonine-protein kinase PAK 6 (Homo sapiens) (UniProt Q9NQU5); test: Binding affinity to wild-type human partial length PAK6 (N298 to C681 residues) expressed in bacterial expression system assessed as residual binding level at 10 uM by Kinomescan method relative to control
[3] = target: Serine/threonine-protein kinase MAK (Homo sapiens) (UniProt P20794); test: Binding affinity to wild-type human partial length MAK (M1 to P314 residues) expressed in bacterial expression system assessed as residual binding level at 10 uM by Kinomescan method relative to control
[4] = target: Serine/threonine-protein kinase 4 (Homo sapiens) (UniProt Q13043); test: Binding affinity to wild-type human full length MST1 (M1 to F487 residues) expressed in bacterial expression system assessed as residual binding level at 10 uM by Kinomescan method relative to control
[5] = target: Activin receptor type-2A (Homo sapiens) (UniProt P27037); test: Binding affinity to wild-type human ACVR2A (V171 to T499 residues) expressed in bacterial expression system assessed as residual binding level at 10 uM by Kinomescan method relative to control
[6] = target: Tyrosine-protein kinase BTK (Homo sapiens) (UniProt Q06187); test: Binding affinity to wild-type human full length BTK (M1 to S659 residues) expressed in mammalian expression system assessed as residual binding level at 10 uM by Kinomescan method relative to control
[7] = target: Serine/threonine-protein kinase Nek3 (Homo sapiens) (UniProt P51956); test: Binding affinity to wild-type human full length NEK3 (M1 to R506 residues) expressed in mammalian expression system assessed as residual binding level at 10 uM by Kinomescan method relative to control
[8] = target: Serine/threonine-protein kinase Nek5 (Homo sapiens) (UniProt Q6P3R8); test: Binding affinity to wild-type human partial length NEK5 (M1 to M279 residues) expressed in bacterial expression system assessed as residual binding level at 10 uM by Kinomescan method relative to control
[9] = target: Tyrosine-protein kinase receptor Tie-1 (Homo sapiens) (UniProt P35590); test: Binding affinity to wild-type human partial length TIE1 (T819 to A1138 residues) expressed in bacterial expression system assessed as residual binding level at 10 uM by Kinomescan method relative to control
[10] = tested on: Epidermal growth factor receptor (Homo sapiens), P00533 [G719S]; test: Binding affinity to human partial length EGFR G719S mutant (R669 to V1011 residues) expressed in bacterial expression system assessed as residual binding level at 10 uM by Kinomescan method relative to control
[11] = target: MAP kinase-activated protein kinase 2 (Homo sapiens) (UniProt P49137); test: Binding affinity to wild-type human partial length MAPKAPK2 (V48 to D345 residues) expressed in bacterial expression system assessed as residual binding level at 10 uM by Kinomescan method relative to control
[12] = target: Rhodopsin kinase GRK7 (Homo sapiens) (UniProt Q8WTQ7); test: Binding affinity to wild-type human full length GRK7 (M1 to L553 residues) expressed in mammalian expression system assessed as residual binding level at 10 uM by Kinomescan method relative to control
[13] = target: Tyrosine-protein kinase Srms (Homo sapiens) (UniProt Q9H3Y6); test: Binding affinity to wild-type human partial length SRMS (L208 to P488 residues) expressed in mammalian expression system assessed as residual binding level at 10 uM by Kinomescan method relative to control
[14] = target: Eukaryotic translation initiation factor 2-alpha kinase 1 (Homo sapiens) (UniProt Q9BQI3); test: Binding affinity to wild-type human partial length EIF2AK1 (Q147 to E603 residues) expressed in mammalian expression system assessed as residual binding level at 10 uM by Kinomescan method relative to control
[15] = target: Protein kinase C delta type (Homo sapiens) (UniProt Q05655); test: Binding affinity to wild-type human partial length PRKCD (Q328 to D676 residues) expressed in bacterial expression system assessed as residual binding level at 10 uM by Kinomescan method relative to control
[16] = target: Ephrin type-B receptor 6 (Homo sapiens) (UniProt O15197); test: Binding affinity to wild-type human partial length EPHB6 (Q634 to P948 residues) expressed in mammalian expression system assessed as residual binding level at 10 uM by Kinomescan method relative to control
[17] = target: Myosin-IIIa (Homo sapiens) (UniProt Q8NEV4); test: Binding affinity to wild-type human partial length MYO3A (M1 to K338 residues) expressed in bacterial expression system assessed as residual binding level at 10 uM by Kinomescan method relative to control
[18] = tested on: Receptor-type tyrosine-protein kinase FLT3 (Homo sapiens), P36888 [UNDEFINED MUTATION]; test: Binding affinity to human partial length FLT3 ITD/F691L double mutant expressed in bacterial expression system assessed as residual binding level at 10 uM by Kinomescan method relative to control
[19] = target: Mast/stem cell growth factor receptor Kit (Homo sapiens) (UniProt P10721); test: Binding affinity to wild-type human partial length KIT (I571 to D952 residues) expressed in bacterial expression system assessed as residual binding level at 10 uM by Kinomescan method relative to control
[20] = target: Cyclin-dependent kinase 9 (Homo sapiens) (UniProt P50750); test: Binding affinity to wild-type human full length CDK9 (M1 to F372 residues) expressed in bacterial expression system assessed as residual binding level at 10 uM by Kinomescan method relative to control
[21] = tested on: Epidermal growth factor receptor (Homo sapiens), P00533 [L858R]; test: Binding affinity to human partial length EGFR L858R mutant (R669 to V1011 residues) expressed in bacterial expression system assessed as residual binding level at 10 uM by Kinomescan method relative to control
[22] = tested on: Hepatocyte growth factor receptor (Homo sapiens), P08581 [Y1235D]; test: Binding affinity to human partial length MET Y1235D mutant (D1010 to S1367 residues) expressed in bacterial expression system assessed as residual binding level at 10 uM by Kinomescan method relative to control
[23] = target: Cyclin-dependent kinase 7 (Homo sapiens) (UniProt P50613); test: Binding affinity to wild-type human full length CDK7 (M1 to L344 residues) expressed in mammalian expression system assessed as residual binding level at 10 uM by Kinomescan method relative to control
[24] = target: Activin receptor type-1-like (Homo sapiens) (UniProt P37023); test: Binding affinity to wild-type human ACVRL1 (L164 to Q503 residues) expressed in bacterial expression system assessed as residual binding level at 10 uM by Kinomescan method relative to control

Tyrosine-protein kinase ABL1 (Homo sapiens), P00519 [F317L], sequence (P00519 whole entry F317L, the tested form may be a part): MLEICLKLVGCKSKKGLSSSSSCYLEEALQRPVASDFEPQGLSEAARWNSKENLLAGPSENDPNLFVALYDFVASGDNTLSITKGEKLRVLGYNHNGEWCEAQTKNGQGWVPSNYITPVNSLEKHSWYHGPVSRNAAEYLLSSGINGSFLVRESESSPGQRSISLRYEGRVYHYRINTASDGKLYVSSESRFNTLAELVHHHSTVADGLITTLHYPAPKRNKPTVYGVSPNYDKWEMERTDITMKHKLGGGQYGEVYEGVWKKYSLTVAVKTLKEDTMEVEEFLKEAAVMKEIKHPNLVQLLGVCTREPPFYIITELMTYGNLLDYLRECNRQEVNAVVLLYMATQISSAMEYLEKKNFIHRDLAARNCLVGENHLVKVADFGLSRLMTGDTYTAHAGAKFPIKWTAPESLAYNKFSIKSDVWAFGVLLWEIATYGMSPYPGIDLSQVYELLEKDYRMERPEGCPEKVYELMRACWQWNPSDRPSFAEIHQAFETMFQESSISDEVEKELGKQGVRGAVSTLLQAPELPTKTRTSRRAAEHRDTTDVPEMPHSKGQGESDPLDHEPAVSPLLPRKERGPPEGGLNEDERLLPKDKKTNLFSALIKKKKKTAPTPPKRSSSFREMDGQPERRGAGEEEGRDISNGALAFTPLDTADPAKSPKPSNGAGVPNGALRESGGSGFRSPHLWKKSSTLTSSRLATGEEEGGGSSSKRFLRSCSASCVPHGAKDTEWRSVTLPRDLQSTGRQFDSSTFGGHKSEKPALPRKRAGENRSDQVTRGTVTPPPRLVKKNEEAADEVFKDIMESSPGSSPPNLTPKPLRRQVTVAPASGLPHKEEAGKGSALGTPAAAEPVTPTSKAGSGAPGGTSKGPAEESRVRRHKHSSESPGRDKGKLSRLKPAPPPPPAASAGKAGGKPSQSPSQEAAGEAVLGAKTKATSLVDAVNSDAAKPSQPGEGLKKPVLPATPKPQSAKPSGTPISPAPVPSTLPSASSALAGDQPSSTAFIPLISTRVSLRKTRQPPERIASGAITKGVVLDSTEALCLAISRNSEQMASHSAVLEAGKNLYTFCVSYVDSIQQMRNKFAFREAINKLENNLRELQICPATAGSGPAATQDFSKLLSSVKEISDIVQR
Myosin-IIIa (Homo sapiens), sequence (Q8NEV4 whole entry, the tested form may be a part): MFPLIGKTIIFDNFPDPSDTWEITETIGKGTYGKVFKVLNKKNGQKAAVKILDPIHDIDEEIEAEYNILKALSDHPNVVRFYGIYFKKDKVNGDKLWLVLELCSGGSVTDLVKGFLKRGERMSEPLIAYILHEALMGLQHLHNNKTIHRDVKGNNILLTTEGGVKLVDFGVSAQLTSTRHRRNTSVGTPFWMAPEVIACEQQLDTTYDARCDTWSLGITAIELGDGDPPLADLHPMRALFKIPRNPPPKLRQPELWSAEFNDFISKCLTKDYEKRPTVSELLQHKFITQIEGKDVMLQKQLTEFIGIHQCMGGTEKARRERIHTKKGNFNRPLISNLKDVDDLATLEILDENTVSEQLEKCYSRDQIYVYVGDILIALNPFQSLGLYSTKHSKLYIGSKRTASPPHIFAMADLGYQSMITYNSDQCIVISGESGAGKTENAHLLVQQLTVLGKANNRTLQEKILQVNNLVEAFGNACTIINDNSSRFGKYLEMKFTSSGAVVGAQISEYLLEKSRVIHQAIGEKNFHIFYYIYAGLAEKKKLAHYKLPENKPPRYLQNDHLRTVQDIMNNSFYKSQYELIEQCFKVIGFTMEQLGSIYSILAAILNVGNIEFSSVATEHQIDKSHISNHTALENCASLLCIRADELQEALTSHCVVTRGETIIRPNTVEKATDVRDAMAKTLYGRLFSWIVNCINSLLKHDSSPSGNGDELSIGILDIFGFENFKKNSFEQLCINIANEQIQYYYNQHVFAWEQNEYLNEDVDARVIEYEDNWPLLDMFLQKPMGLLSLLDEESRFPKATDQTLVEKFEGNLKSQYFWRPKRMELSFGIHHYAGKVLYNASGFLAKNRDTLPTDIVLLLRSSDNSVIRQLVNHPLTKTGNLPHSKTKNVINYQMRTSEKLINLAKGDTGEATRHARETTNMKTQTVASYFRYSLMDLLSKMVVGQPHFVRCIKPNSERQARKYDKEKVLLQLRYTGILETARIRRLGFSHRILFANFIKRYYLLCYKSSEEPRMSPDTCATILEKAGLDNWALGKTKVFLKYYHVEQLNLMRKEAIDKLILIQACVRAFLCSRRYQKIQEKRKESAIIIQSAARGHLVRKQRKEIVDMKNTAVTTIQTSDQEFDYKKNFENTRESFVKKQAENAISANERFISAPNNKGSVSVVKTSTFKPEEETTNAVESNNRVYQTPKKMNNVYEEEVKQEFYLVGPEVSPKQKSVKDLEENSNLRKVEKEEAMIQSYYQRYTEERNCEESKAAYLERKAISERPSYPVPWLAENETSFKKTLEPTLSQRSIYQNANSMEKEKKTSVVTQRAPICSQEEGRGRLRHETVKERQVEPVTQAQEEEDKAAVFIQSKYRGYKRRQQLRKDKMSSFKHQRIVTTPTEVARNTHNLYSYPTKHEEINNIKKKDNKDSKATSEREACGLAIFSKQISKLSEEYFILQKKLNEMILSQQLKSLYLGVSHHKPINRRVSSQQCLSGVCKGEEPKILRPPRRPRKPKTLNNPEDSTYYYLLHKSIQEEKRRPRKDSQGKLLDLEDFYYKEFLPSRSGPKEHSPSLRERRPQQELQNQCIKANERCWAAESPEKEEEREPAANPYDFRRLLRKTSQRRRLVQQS
MAP kinase-activated protein kinase 2 (Homo sapiens), sequence (P49137 whole entry, looked up, the tested form may be a part): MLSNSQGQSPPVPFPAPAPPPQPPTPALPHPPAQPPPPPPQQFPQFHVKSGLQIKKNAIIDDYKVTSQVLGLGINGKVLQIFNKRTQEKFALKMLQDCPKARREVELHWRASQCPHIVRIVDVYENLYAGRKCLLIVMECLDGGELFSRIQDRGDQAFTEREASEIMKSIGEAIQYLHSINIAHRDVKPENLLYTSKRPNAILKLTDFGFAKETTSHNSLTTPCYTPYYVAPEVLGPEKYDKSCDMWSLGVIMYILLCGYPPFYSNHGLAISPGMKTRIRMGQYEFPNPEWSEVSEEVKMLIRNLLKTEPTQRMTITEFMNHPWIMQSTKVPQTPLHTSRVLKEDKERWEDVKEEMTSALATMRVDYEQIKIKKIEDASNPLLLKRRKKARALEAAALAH
Serine/threonine-protein kinase MAK (Homo sapiens), sequence (P20794 whole entry, the tested form may be a part): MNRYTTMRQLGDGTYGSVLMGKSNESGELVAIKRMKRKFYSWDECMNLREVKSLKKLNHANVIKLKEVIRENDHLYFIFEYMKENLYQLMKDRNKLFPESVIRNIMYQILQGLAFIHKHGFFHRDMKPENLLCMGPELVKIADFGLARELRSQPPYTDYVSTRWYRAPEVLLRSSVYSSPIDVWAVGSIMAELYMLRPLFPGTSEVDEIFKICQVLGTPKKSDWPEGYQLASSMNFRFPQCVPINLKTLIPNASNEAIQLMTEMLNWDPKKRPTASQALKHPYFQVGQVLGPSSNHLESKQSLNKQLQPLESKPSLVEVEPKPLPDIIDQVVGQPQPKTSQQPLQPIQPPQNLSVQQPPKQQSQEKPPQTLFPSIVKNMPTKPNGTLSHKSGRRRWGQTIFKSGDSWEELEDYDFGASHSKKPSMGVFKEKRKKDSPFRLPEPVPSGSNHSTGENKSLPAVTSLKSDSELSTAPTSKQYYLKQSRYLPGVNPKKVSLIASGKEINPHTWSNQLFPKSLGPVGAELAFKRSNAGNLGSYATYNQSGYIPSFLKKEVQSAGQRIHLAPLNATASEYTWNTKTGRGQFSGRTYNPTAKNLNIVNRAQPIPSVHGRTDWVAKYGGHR
Serine/threonine-protein kinase PAK 6 (Homo sapiens), sequence (Q9NQU5 whole entry, looked up, the tested form may be a part): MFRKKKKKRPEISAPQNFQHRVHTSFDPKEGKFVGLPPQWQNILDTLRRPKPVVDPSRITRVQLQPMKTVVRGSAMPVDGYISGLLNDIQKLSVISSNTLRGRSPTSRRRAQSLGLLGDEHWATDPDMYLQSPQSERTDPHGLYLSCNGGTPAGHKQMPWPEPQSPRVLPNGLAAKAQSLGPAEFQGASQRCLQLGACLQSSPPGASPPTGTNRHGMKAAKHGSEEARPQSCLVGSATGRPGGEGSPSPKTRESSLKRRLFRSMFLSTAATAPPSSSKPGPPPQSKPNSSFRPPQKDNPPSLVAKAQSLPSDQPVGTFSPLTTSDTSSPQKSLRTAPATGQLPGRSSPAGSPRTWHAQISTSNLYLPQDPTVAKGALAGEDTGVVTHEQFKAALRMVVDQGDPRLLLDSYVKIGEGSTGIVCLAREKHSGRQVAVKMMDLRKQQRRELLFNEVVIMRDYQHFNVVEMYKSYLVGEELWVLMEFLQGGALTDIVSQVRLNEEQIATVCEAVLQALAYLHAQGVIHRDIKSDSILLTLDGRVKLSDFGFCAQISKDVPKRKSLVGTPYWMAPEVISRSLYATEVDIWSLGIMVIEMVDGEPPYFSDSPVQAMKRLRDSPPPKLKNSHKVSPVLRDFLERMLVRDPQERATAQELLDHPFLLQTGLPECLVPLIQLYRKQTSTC
Cyclin-dependent kinase 7 (Homo sapiens), sequence (P50613 whole entry, the tested form may be a part): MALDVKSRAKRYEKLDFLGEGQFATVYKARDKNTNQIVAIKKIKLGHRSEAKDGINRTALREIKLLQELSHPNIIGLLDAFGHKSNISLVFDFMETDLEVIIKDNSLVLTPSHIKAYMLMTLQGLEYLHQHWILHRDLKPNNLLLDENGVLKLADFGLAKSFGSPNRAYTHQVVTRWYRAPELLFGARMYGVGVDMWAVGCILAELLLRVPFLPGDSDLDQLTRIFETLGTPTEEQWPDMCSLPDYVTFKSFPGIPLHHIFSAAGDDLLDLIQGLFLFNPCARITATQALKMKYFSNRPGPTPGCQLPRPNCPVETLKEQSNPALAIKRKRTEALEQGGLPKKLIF

SMILES: O=C(Nc1cc(-c2cn(CCNc3c4c(nc5ccccc35)CCCC4)nn2)ccn1)Nc1cccc2c1C1CCCCN1C2=O (racemic)
- Activity [1]: 20%
- Activity [2]: 66%
- Activity [3]: 52%
- Activity [4]: 66%
- Activity [5]: 100%
- Activity [6]: 100%
- Activity [7]: 69%
- Activity [8]: 82%
- Activity [9]: 66%
- Activity [10]: 94%
- Activity [11]: 100%
- Activity [12]: 61%
- Activity [13]: 82%
- Activity [14]: 100%
- Activity [15]: 7.3%
- Activity [16]: 13%
- Activity [17]: 75%
- Activity [18]: 0.25%
- Activity [19]: 0.25%
- Activity [20]: 3.8%
- Activity [21]: 80%
- Activity [22]: 88%
- Activity [23]: 2.3%
- Activity [24]: 100%
